Experimental findings from patent US9902728B2, “Pyrrolo and pyrazolopyrimidines as ubiquitin-specific protease 7 inhibitors” (Forma Therapeutics, Inc., priority 2014, dated 2018) are described below.

For the first experiment, the target named is T1, USP7 (Homo sapiens, UniProt Q93009).
T1 construct: USP7, construct USP7 (208-1102) 6*His, Viva Biotech; 6xHis (C); purchased Viva Biotech
T1 sequence (Q93009 208-1102): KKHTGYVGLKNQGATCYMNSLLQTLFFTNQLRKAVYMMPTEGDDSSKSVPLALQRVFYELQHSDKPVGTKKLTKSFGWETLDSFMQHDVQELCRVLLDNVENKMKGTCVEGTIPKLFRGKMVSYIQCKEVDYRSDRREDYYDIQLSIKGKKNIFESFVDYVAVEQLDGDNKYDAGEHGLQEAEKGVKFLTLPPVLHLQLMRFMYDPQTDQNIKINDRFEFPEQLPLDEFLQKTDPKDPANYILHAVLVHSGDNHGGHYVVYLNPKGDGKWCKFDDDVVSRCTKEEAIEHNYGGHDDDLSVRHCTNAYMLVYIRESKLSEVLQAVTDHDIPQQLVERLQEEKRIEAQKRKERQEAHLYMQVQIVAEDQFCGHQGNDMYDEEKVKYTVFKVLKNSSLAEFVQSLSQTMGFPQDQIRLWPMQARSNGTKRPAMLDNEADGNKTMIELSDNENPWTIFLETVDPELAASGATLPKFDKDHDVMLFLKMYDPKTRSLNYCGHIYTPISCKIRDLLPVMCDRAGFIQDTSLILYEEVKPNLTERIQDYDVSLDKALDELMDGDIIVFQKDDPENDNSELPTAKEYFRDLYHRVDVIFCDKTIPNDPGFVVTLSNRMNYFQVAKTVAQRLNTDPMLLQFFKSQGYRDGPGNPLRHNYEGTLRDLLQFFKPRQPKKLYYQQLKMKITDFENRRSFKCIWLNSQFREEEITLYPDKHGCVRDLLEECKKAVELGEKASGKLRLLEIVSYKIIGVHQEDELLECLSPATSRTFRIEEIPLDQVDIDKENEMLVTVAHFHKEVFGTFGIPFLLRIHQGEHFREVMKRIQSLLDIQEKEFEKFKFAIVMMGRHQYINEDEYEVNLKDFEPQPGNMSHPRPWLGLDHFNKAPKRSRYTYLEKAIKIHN
The experiment is described as follows: USP7 Assay A (Ubitquin-Rhodamine 110 Assay). It is filed as biochemical. To be noted: USP7 activity in USP7 assay A and B (table does not say which assay per compound); read-out: USP7_IC50. Summed up:
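Enzyme and compound sat together for 30 min before Ub-Rh110 was added, in buffer of 20 mM Tris-HCl (pH 8.0), 1 mM GSH, 0.03% BGG and 0.01% Triton X-100.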
On to `CC1(C(=O)N2CCC(O)(Cn3cnc4c(cnn4-c4ccc(N5CCC6(CC5)CC(F)(F)C6)cc4)c3=O)CC2)CCC1` [Compound I-1718], for which the IC50 was below 200 nM.
The same measure, in the same setting: for `CC1(C(=O)N2CCC(O)(Cn3cnc4c(cnn4-c4ccc(-c5cnn(C6CCOCC6)c5)cc4)c3=O)CC2)CCC1` [Compound I-1719] the value was below 200 nM; for `CC1(C(=O)N2CCC(O)(Cn3cnc4c(cnn4-c4ccc(-c5cnn(C6CC6)c5)cc4)c3=O)CC2)CCC1` [Compound I-1720], below 200 nM.
For `CC1(C(=O)N2CCC(O)(Cn3cnc4c(cnn4-c4ccc(-c5cnn(C(F)F)c5)cc4)c3=O)CC2)CCC1` [Compound I-1721], the IC50 was below 200 nM.
The same measure, in the same setting: the same measure for `CC1(C(=O)N2CCC(O)(Cn3cnc4c(cnn4-c4ccc(-c5cnn(C6CCOCC6)c5)cc4)c3=O)CC2)CC1` [Compound I-1722]: below 200 nM; for `CC1(C(=O)N2CCC(O)(Cn3cnc4c(cnn4-c4ccc(-c5cnn(C6CC6)c5)cc4)c3=O)CC2)CC1` [Compound I-1723]: 200 to 1000 nM.
Still for that read-out and setting: for `Cc1ccnc(-c2ccc(-n3ncc4c(=O)n(CC5(O)CCN(C(=O)C6CC6)CC5)cnc43)cc2)c1` [Compound I-1725] the value was 1000 to 10000 nM; for `Cc1ccc(-c2ccc(-n3ncc4c(=O)n(CC5(O)CCN(C(=O)C6CC6)CC5)cnc43)cc2)nc1` [Compound I-1726], 200 to 1000 nM.
Turning to `O=C(C1CC1)N1CCC(O)(Cn2cnc3c(cnn3-c3ccc(N4CCCc5ncccc54)cc3)c2=O)CC1` [Compound I-1727], the IC50 was 1000 to 10000 nM.
Still for that read-out and setting: for `CC1(C(=O)N2CCC(O)(Cn3cnc4c(cnn4-c4ccc(N5CCC(F)(F)CC5)cc4)c3=O)CC2)CC1` [Compound I-1728] the value was 200 to 1000 nM; for `O=C(c1ccc(F)cc1)N1CCC(O)(Cn2cnc3c(cnn3-c3ccc(N4CCCc5cnccc54)cc3)c2=O)CC1` [Compound I-1729], 1000 to 10000 nM; for `CC1(C(=O)N2CCC(O)(Cn3cnc4c(cnn4-c4cccc(N5CC(C6CCOCC6)C5)c4)c3=O)CC2)CC1` [Compound I-1732], 200 to 1000 nM.
Still for that read-out and setting: the same measure for `Cc1ncc(C(=O)N2CCC(O)(Cn3cnc4c(cnn4-c4ccc(-n5cc(Cl)cn5)cc4)c3=O)CC2)o1` [Compound I-1733]: below 200 nM; for `O=C(c1ccc(F)cc1)N1CCC(O)(Cn2cnc3c(cnn3-c3ccc(-n4cc(CO)cn4)cc3)c2=O)CC1` [Compound I-1734]: 200 to 1000 nM; for `O=C(c1ccc(N2CCN3CCCC3C2)cc1)N1CCC(O)(Cn2cnc3c(cnn3-c3ccc(F)cc3)c2=O)CC1` (stereo not drawn) [Compound I-1735]: 1000 to 10000 nM.
On the same count and under the same terms, for `O=C(C1CC1)N1CCC(O)(Cn2cnc3c(cnn3-c3ccc(-c4cnn5ccccc45)cc3)c2=O)CC1` [Compound I-1736] the value was 200 to 1000 nM; for `O=C(C1CC1)N1CCC(O)(Cn2cnc3c(cnn3-c3ccc(-c4cncc(C(F)(F)F)c4)cc3)c2=O)CC1` [Compound I-1737], 1000 to 10000 nM.
As to `O=C(C1CC1)N1CCC(O)(Cn2cnc3c(cnn3-c3ccc(-c4cccc5oncc45)cc3)c2=O)CC1` [Compound I-1738], the IC50 is 1000 to 10000 nM.
As to `O=C(C1CC1)N1CCC(O)(Cn2cnc3c(cnn3-c3ccc(N4CCC5(CC4)CC(O)C5)cc3)c2=O)CC1` [Compound I-1739], the IC50 was in the range of 1000 to 10000 nM.
Regarding `O=C(c1ccc(F)cc1)N1CCC(O)(Cn2cnc3c(cnn3-c3ccc(N4CCC5(CC4)CC(CO)C5)cc3)c2=O)CC1` [Compound I-1740], the IC50 fell in the range of 200 to 1000 nM.
As for `O=C(C1CC1)N1CCC(O)(Cn2cnc3c(cnn3-c3ccc(N4CCC5(CC4)CC(CO)C5)cc3)c2=O)CC1` [Compound I-1741], the IC50 lay in the range of 200 to 1000 nM.
`O=C(c1ccc(F)cc1)N1CCC(O)(Cn2cnc3c(cnn3-c3ccc(-c4cnn(C5CCS(=O)(=O)CC5)c4)cc3)c2=O)CC1` [Compound I-1744]: the IC50 was 200 to 1000 nM.
Still for that read-out and setting: the same measure for `O=C(c1ccc(F)cc1)N1CCC(O)(Cn2cnc3c(cnn3-c3ccc(-c4cnn(C5CS(=O)(=O)C5)c4)cc3)c2=O)CC1` [Compound I-1745]: 200 to 1000 nM; for `O=C(c1ccc(F)cc1)N1CCC(O)(Cn2cnc3c(cnn3-c3ccc(-c4cnn(C5CC5)c4)cc3)c2=O)CC1` [Compound I-1746]: 200 to 1000 nM; for `CC(=O)N1C[C@@H]2C[C@H]1CN2c1ccc(-n2ncc3c(=O)n(CC4(O)CCN(C(=O)C5(C)CC5)CC4)cnc32)cc1` [Compound I-1747]: 200 to 1000 nM.
Same read-out and setting: for `CC(=O)N1CC2CC1CN2c1cccc(-n2ncc3c(=O)n(CC4(O)CCN(C(=O)C5(C)CC5)CC4)cnc32)c1` (stereo not drawn) [Compound I-1748] the value was 200 to 1000 nM; for `CC(=O)N1CC2CC1CN2c1ccc(-n2ncc3c(=O)n(CC4(O)CCN(C(=O)C5(C)CC5)CC4)cnc32)cc1` (stereo not drawn) [Compound I-1749], 200 to 1000 nM; for `COCCN1CCN(c2cccc(-n3ncc4c(=O)n(CC5(O)CCN(C(=O)C6(C)CC6)CC5)cnc43)c2)CC1` [Compound I-1750], 200 to 1000 nM.
As to `CC1(C(=O)N2CCC(O)(Cn3cnc4c(cnn4-c4cccc(N5CCC(C#N)CC5)c4)c3=O)CC2)CC1` [Compound I-1751], the IC50 was 200 to 1000 nM.
With `CC1(C(=O)N2CCC(O)(Cn3cnc4c(cnn4-c4ccc(N5CCC(C#N)CC5)cc4)c3=O)CC2)CC1` [Compound I-1752], the IC50 lay within 200 to 1000 nM.
As to `Cn1ncc2c(=O)n(CC3(O)CCN(C(=O)CC(C(F)F)n4ccc(F)n4)CC3)cnc21` (stereo not drawn) [Compound I-1753], the IC50 lay within 200 to 1000 nM.
On to `CC1(C(=O)N2CCC(O)(Cn3cnc4c(cnn4-c4ccc(-n5ccc(F)n5)cc4)c3=O)CC2)CC1` [Compound I-1754], for which the IC50 was 200 to 1000 nM.
Still for that read-out and setting: for `O=C(C1CC1)N1CCC(O)(Cn2cnc3c(cnn3-c3ccc(N4CCC5(CC4)CC5)cc3)c2=O)CC1` [Compound I-1755] the value was 1000 to 10000 nM; for `CC1(COc2ccc(-n3ncc4c(=O)n(CC5(O)CCN(C(=O)c6ccc(F)cc6)CC5)cnc43)cc2)COC1` [Compound I-1756], 200 to 1000 nM; for `Cn1ncc2ccc(-c3ccc(-n4ncc5c(=O)n(CC6(O)CCN(C(=O)C7CC7)CC6)cnc54)cc3)cc21` [Compound I-1764], 1000 to 10000 nM.
The same measure, in the same setting: for `O=C(C1CC1)N1CCC(O)(Cn2cnc3c(cnn3-c3ccc(-c4ccc5[nH]ccc5n4)cc3)c2=O)CC1` [Compound I-1768] the value was 200 to 1000 nM.

Staying with this experiment, now noted: USP7 assay A and B (table does not say which assay per compound); read-out: USP7_IC50.
As to `CC1(C(=O)N2CCC(O)(Cn3cnc4c(cnn4-c4ccc(-c5cnn(C(F)F)c5)cc4)c3=O)CC2)CC1` [Compound I-1800], the IC50 is below 200 nM.
On to `CC1(C(=O)N2CCC(O)(Cn3cnc4c(cnn4-c4ccc(OC5CC(F)(F)C5)cc4)c3=O)CC2)CC1` [Compound I-1801], for which the IC50 was below 200 nM.
Same read-out and setting: the same measure for `O=C(C1CC1)N1CCC(O)(Cn2cnc3c(cnn3-c3cccc(-c4cnc(N5CCOCC5)nc4)c3)c2=O)CC1` [Compounds I-401]: 1000 to 10000 nM.
